Laboratory results from paper PMC6882135 (ACS Omega, 2019).

Legend:
human HDAC11 [1] = molecular target: T1, human HDAC11 (Homo sapiens, UniProt Q96DB2); assay: Continuous fluorescence HDAC11 activity assay with peptidic substrate 1; type: biochemical
T1 sequence (Q96DB2 1-347): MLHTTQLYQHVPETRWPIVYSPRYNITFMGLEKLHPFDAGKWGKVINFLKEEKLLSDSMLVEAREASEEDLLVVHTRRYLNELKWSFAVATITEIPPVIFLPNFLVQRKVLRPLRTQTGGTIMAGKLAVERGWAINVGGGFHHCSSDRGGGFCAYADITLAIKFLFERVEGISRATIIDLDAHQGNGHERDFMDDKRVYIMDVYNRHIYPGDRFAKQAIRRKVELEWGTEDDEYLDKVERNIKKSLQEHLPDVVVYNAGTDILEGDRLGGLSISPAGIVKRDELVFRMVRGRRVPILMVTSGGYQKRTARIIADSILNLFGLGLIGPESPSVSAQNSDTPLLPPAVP

human HDAC11 [2] = molecular target: T1, human HDAC11; assay: Discontinuous fluorescence-based; type: biochemical

| IC50 (human HDAC11 [1]) | IC50 (human HDAC11 [2]) | Structure (SMILES) |
| --- | --- | --- |
| > 40 µM | > 40 µM | Nc1ccccc1NC(=O)c1ccc(CNc2nccc(-c3cccnc3)n2)cc1 [mocetinostat, N-(2-aminophenyl)-4-(4-pyridin-3-ylpyrimidin-2-ylamino)methylbenzamide] |
| – | 4.81 ± 0.04 µM | C/C=C1\NC(=O)[C@H]2CSSCC/C=C/[C@H](CC(=O)N[C@H](C(C)C)C(=O)N2)OC(=O)[C@H](C(C)C)NC1=O [romidepsin] |
| > 40 µM | > 40 µM | CCCC(CCC)C(=O)O [valproate] |
